Consider two compounds from patent US8859250B2, “Crystal structure of glutaminyl cyclase” (Probiodrug AG, priority 2010, dated 2014).

One series deals with T1, murine QC (mQC) (Mus musculus, UniProt Q9CYK2).
T1 construct: made in house; host or cells: Pichia pastoris (vector pPICZalphaB, secreted)
The series is described as follows: Ki-values of selected inhibitors for murine QC. The series is classed as biochemical. The following applies: murine glutaminyl cyclase.

The nature of the next series: Solubility in water. The series is classed as physicochemical.

T1 sequence (Q9CYK2 36-362): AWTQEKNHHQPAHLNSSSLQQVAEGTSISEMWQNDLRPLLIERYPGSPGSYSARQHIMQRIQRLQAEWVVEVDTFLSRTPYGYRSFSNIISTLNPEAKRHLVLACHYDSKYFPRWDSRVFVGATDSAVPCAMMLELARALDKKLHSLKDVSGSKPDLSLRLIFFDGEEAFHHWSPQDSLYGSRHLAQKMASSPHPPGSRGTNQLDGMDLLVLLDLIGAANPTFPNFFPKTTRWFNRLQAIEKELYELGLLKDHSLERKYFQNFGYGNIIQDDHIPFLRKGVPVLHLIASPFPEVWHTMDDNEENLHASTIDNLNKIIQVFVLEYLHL

By Ki is commonly meant the equilibrium dissociation constant of an inhibitor or competing ligand from its target. As to `COc1ccc(NC(=S)NCCCn2ccnc2)cc1OC` [Inhibitor A, 1-(3-(1H-Imidazol-1-yl)propyl)-3-(3,4-dimethoxyphenyl)thiourea], at murine QC (mQC), the Ki was determined as 173 nM. Further, the solubility in water entry in the series “Solubility in water” was “soluble in water”.
Turning to `Cc1cc(C)c(N/C(=N/C#N)NCCCn2cncc2C)c(C)c1` [Inhibitor C], the Ki at murine QC (mQC) turned out to be 51.3 nM.
